Results on eight compounds are retold here after ChEMBL document CHEMBL1153771, “Gamma-lactone carbazoles from Clausena anisata” (2009).

Activity calls are given as the source filed them. The calls are words filed in the database; no cut-off is given here.

For one assay, the system named is HL-60. In words: Cytotoxicity against human HL60 cells assessed as cell viability at 30 uM after 24 hrs by MTS assay. It counts as functional.
Settings: not given
Background: Tetrazolium assays rely on reduction of a dye to a coloured formazan, in cell work by metabolically active cells.
`COC(=O)c1cc(OC)c2[nH]c3ccccc3c2c1CC=C(C)C`: the outcome was inactive.
For `COC(=O)c1cc2c(cc1O)[nH]c1ccccc12`, the outcome was inactive.
As for `COc1cc2[nH]c3ccccc3c2cc1C=O`, the result was inactive.
As to `O=Cc1cc2c(cc1O)[nH]c1ccccc12`, the result was inactive.
On to `COC(=O)c1cc(O)c2[nH]c3ccccc3c2c1CC=C(C)C`, for which the outcome was inactive.

Staying with this assay, now noted: HL-60, 24 h, read-out: Activity.
Take `COC(=O)c1cc(OC)c2[nH]c3ccccc3c2c1/C=C/C(C)(C)O` [CLAUSAMINE E]: the viability at 30 µM was 47.3%.
`COc1cc2c(c3c1[nH]c1ccccc13)CC(C(C)(C)O)OC2=O` (stereo not drawn) [CLAUSAMINE C]: the viability at 30 µM came out at 79.7%.
As for `C=C(C)C1Cc2c(cc(OC)c3[nH]c4ccccc4c23)C(=O)O1` (stereo not drawn) [CLAUSAMINE B], the viability at 30 µM came to 80.3%.
